Measurements published in article PMC8360864, “Benzylmalonyl-CoA dehydrogenase, an enzyme involved in bacterial auxin degradation” (Archives of Microbiology, 2021).

T1: Benzylmalonyl-CoA dehydrogenase (IaaF) (Aromatoleum aromaticum, UniProt Q5P5Z9)
T1 construct: fusion protein of IaaF with a N-terminal Strep-tag
T1 sequence (Q5P5Z9 1-377): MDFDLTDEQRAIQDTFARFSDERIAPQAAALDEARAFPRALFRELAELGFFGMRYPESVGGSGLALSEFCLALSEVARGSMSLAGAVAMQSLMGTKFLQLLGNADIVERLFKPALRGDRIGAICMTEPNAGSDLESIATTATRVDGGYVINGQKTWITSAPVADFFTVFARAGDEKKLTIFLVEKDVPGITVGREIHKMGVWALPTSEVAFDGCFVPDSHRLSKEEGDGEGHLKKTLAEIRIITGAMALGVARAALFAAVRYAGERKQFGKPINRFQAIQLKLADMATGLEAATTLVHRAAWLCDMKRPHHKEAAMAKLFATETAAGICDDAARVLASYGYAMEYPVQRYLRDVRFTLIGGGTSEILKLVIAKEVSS


Assays:
[1] = biological target: T1, Benzylmalonyl-CoA dehydrogenase (IaaF); assay: product formation by HPLC and UV-Vis with purified enzyme; type: biochemical
purified protein = substrate: CC(C)(COP(=O)(O)OP(=O)(O)OC[C@H]1O[C@@H](n2cnc3c(N)ncnc32)[C@H](O)[C@@H]1OP(=O)(O)O)[C@@H](O)C(=O)NCCC(=O)NCCSC(=O)C(Cc1ccccc1)C(=O)O; assay: purified protein; type: biochemical, Aromatoleum aromaticum; conditions: FAD active site (GGG motif replacing YEG) proposed

| Molecule | product formation by HPLC and UV-Vis with purified enzyme [1] | Km (purified protein) [µM] |
| --- | --- | --- |
| CC(C)(COP(=O)(O)OP(=O)(O)OC[C@H]1O[C@@H](n2cnc3c(N)ncnc32)[C@H](O)[C@@H]1OP(=O)(O)O)[C@@H](O)C(=O)NCCC(=O)NCCSC(=O)/C=C/c1ccccc1 [cinnamoyl-CoA] | formation of a new CoA-thioester over time which was identified as cinnamoyl-CoA by its UV–Vis spectrum |  |
| Benzylmalonyl-CoA dehydrogenase (IaaF) (Aromatoleum aromaticum EbN1) (protein, fusion protein of IaaF with a N-terminal Strep-tag) MDFDLTDEQRAIQDTFARFSDERIAPQAAALDEARAFPRALFRELAELGFFGMRYPESVGGSGLALSEFCLALSEVARGSMSLAGAVAMQSLMGTKFLQLLGNADIVERLFKPALRGDRIGAICMTEPNAGSDLESIATTATRVDGGYVINGQKTWITSAPVADFFTVFARAGDEKKLTIFLVEKDVPGITVGREIHKMGVWALPTSEVAFDGCFVPDSHRLSKEEGDGEGHLKKTLAEIRIITGAMALGVARAALFAAVRYAGERKQFGKPINRFQAIQLKLADMATGLEAATTLVHRAAWLCDMKRPHHKEAAMAKLFATETAAGICDDAARVLASYGYAMEYPVQRYLRDVRFTLIGGGTSEILKLVIAKEVSS |  | 1.6 ± 0.3 |
